# Source: patent publication US8921267B2, “Safening 6-(trisubstituted phenyl)-4-amino-2-pyridinecarboxylate herbicide injury on cereal crops” (Dow AgroSciences LLC, priority 2008, dated 2014)
# Tests used:
# [1] = system: wild pansy (Viola tricolor L; VIOTR); test: Postemergence herbicidal activity, greenhouse, visual injury: wild pansy; assay type: in vivo; set-up: key: visual injury, 0–100%: 0 = no injury, 100 = complete kill
# Method: (§1) Evaluation of Postemergence Herbicidal Safening in Cereal Crops
# (§2) Seeds of the desired test plant species were planted in Sun Gro MetroMix® 306 planting mixture, which typically has a pH of 6.0 to 6.8 and an organic matter content of about 30 percent, in plastic pots with a surface area of 103.2 square centimeters (cm^2). When required to ensure good germination and healthy plants, a fungicide treatment and/or other chemical or physical treatment was applied. The plants were grown for 7-36 days (d) in a greenhouse with an approximate 14-hour (h) photoperiod which was maintained at about 18° C. during the day and 17° C. during the night. Nutrients and water were added on a regular basis and supplemental lighting was provided with overhead metal halide 1000-Watt lamps as necessary. The plants were employed for testing when they reached the second or third true leaf stage.
# (§3) Weighed amounts of esters (methyl) or salts (TEA [triethylammonium], K [potassium]) of 4-amino-3-chloro-6-(4-chloro-2-fluoro-3-methoxyphenyl)pyridine-2-carboxylic acid (Compound 1) were dissolved in a volume of 97:3 volume/volume (v/v) acetone/dimethylsulfoxide (DMSO) to obtain stock solutions. […] The concentrated stock solutions were diluted with an aqueous mixture of 1.5% v/v of Agri-dex crop oil concentrate to provide the appropriate application rates. Compound requirements are based upon a 12 mL application volume at a rate of 187 liters per hectare (L/ha). Stocks solutions of the safeners were prepared following the same procedure. Spray solutions of the safeners and experimental compound mixtures were prepared by adding the stock solutions to the appropriate amount of dilution solution to form a 12 mL spray solution with active ingredients in two-way combinations. Formulated compounds were applied to the plant material with an overhead Mandel track sprayer equipped with 8002E nozzles calibrated to deliver 187 L/ha over an application area of 0.503 square meters (m^2) at a spray height of 18 inches (43 centimeters (cm)) above average plant canopy. Control plants were sprayed in the same manner with the solvent blank.
# (§4) The treated plants and control plants were placed in a greenhouse as described above and watered by sub-irrigation to prevent wash-off of the test compounds. After 20-22 d, the condition of the test plants as compared with that of the control plants was determined visually and scored on a scale of 0 to 100 percent where 0 corresponds to no injury and 100 corresponds to complete kill.
# (§5) Colby's equation was used to determine the herbicidal effects expected from the mixtures (Colby, S. R. Calculation of the synergistic and antagonistic response of herbicide combinations. Weeds 1967, 15, 20-22.).
# (§6) The following equation was used to calculate the expected activity of mixtures containing two active ingredients, A and B: Expected=A+B−(A×B/100)
# (§7) A=observed efficacy of active ingredient A at the same concentration as used in the mixture.
# (§8) B=observed efficacy of active ingredient B at the same concentration as used in the mixture.
# [2] = system: scented mayweed (Matricaria chamomila L; MATCH); test: Postemergence herbicidal activity, greenhouse, visual injury: scented mayweed; assay type: in vivo; set-up: key: % visual injury: 0 = no injury, 100 = complete kill; details: for MATCH Ob: applied alone
# Method: as §1, §2, §3, §4, §5, §6, §7, §8
# [3] = system: barley (Hordeum vulgare L; HORVS); test: Postemergence herbicidal safening, greenhouse, visual injury: barley; assay type: in vivo
# Method: as §1, §2, §3, §4, §5, §6, §7, §8
# [4] = system: wheat (Triticum aestivum L; TRZAS); test: Postemergence herbicidal safening, greenhouse, visual injury: wheat; assay type: in vivo
# Method: as §1, §2, §3, §4, §5, §6, §7, §8
# [5] = system: purple deadnettle (Lamium purpureum L; LAMPU); test: Postemergence herbicidal activity, greenhouse, visual injury: purple deadnettle; assay type: in vivo; set-up: key: visual injury, 0–100%: 0 = no injury, 100 = complete kill; details: for LAMPU Ob: applied alone
# Method: as §1, §2, §3, §4, §5, §6, §7, §8
# [6] = system: wheat (Triticum aestivum L; TRZAW); test: Postemergence herbicidal safening, greenhouse, visual injury: wheat (TRZAW); assay type: in vivo
# Method: as §1, §2, §3, §4, §5, §6, §7, §8
# [7] = system: corn poppy (Papaver rhoeas L; PAPRH); test: Postemergence herbicidal activity, greenhouse, visual injury: corn poppy; assay type: in vivo
# Method: as §1, §2, §3, §4, §5, §6, §7, §8
# [8] = system: chickweed (Stellaria media L; STEME); test: Postemergence herbicidal activity, greenhouse, visual injury: chickweed; assay type: in vivo; set-up: key: visual injury, 0–100%: 0 = no injury, 100 = complete kill
# Method: as §1, §2, §3, §4, §5, §6, §7, §8
# [9] = system: cleavers (Galium aparine L; GALAP); test: Postemergence herbicidal activity, greenhouse, visual injury: cleavers; assay type: in vivo; set-up: key: visual injury, 0–100%: 0 = no injury, 100 = complete kill
# Method: as §1, §2, §3, §4, §5, §6, §7, §8
# [10] = system: wild buckwheat (Polygonum convolvulus L; POLCO); test: Postemergence herbicidal activity, greenhouse, visual injury: wild buckwheat; assay type: in vivo
# Method: as §1, §2, §3, §4, §5, §6, §7, §8
# [11] = system: bird's-eye speedwell (Veronica persica L; VERPE); test: Postemergence herbicidal activity, greenhouse, visual injury: bird's-eye speedwell; assay type: in vivo; set-up: key: visual injury, 0–100%: 0 = no injury, 100 = complete kill
# Method: as §1, §2, §3, §4, §5, §6, §7, §8
# barley (HORVW) = test: Postemergence herbicidal safening, greenhouse, visual injury: barley (HORVW)
# [12] = system: durum wheat (Triticum durum L; TRZDU); test: Postemergence herbicidal safening, greenhouse, visual injury: durum wheat; assay type: in vivo
# Method: as §1, §2, §3, §4, §5, §6, §7, §8
# [13] = system: Russian thistle (Salsola iberica L; SASKR); test: Postemergence herbicidal activity, greenhouse, visual injury: Russian thistle; assay type: in vivo; set-up: key: visual injury, 0–100%: 0 = no injury, 100 = complete kill
# Method: as §1, §2, §3, §4, §5, §6, §7, §8
# [14] = system: kochia (Kochia scoparia L; KCHSC); test: Postemergence herbicidal activity, greenhouse, visual injury: kochia; assay type: in vivo; set-up: key: % visual injury: 0 = no injury, 100 = complete kill; details: applied alone
# Method: as §1, §2, §3, §4, §5, §6, §7, §8
smiles,measurement,setting,value
O=C(O)CNCP(=O)(O)O [Glyphosate],VIOTR Ob (Observed values),[1]; Glyphosate 52.5 g/ha alone,52
same,MATCH Ob (Observed values),[2]; Glyphosate 52.5 g/ha alone,28
same,HORVS Ob (Observed values),[3]; Glyphosate 52.5 g/ha alone,13
same,TRZAS Ob (Observed values),[4]; Glyphosate 52.5 g/ha alone,48
"CC1COc2ccccc2N1C(=O)C(Cl)Cl (racemic) [Benoxacor, (±)-4-(dichloroacetyl)-3,4-dihydro-3-methyl-2H-1,4-benzoxazine, reference compound]",LAMPU Ob (Observed values),[5]; safener 4.4 g/ha alone,0
same,LAMPU Ob (Observed values),[5]; safener 8.8 g/ha alone,0
same,LAMPU Ob (Observed values),[5]; safener 17.5 g/ha alone,0
same,LAMPU Ob (Observed values),[5]; safener 35 g/ha alone,0
same,TRZAW Ob (Observed values),[6]; safener 4.4 g/ha alone,0%
same,TRZAW Ob (Observed values),[6]; safener 8.8 g/ha alone,0%
same,TRZAW Ob (Observed values),[6]; safener 17.5 g/ha alone,0%
same,TRZAW Ob (Observed values),[6]; safener 35 g/ha alone,0%
same,VIOTR Ob,[1]; applied alone at 17.5 g/ha,0%
same,VIOTR Ob,[1]; applied alone at 35 g/ha,0%
same,VIOTR Ob,[1]; applied alone at 70 g/ha,0%
same,VIOTR Ob,[1]; applied alone at 140 g/ha,0%
same,PAPRH Ob,[7]; applied alone at 17.5 g/ha,0%
same,PAPRH Ob,[7]; applied alone at 35 g/ha,0%
same,PAPRH Ob,[7]; applied alone at 70 g/ha,0%
same,PAPRH Ob,[7]; applied alone at 140 g/ha,0%
same,PAPRH Ob (Observed values),[7]; safener 4.4 g/ha alone,0
same,PAPRH Ob (Observed values),[7]; safener 8.8 g/ha alone,0
same,PAPRH Ob (Observed values),[7]; safener 17.5 g/ha alone,0
same,PAPRH Ob (Observed values),[7]; safener 35 g/ha alone,0
same,STEME Ob,[8]; applied alone at 17.5 g/ha,0%
same,STEME Ob,[8]; applied alone at 35 g/ha,0%
same,STEME Ob,[8]; applied alone at 70 g/ha,0%
same,STEME Ob,[8]; applied alone at 140 g/ha,0%
same,GALAP Ob,[9]; applied alone at 17.5 g/ha,0%
same,GALAP Ob,[9]; applied alone at 35 g/ha,0%
same,GALAP Ob,[9]; applied alone at 70 g/ha,0%
same,GALAP Ob,[9]; applied alone at 140 g/ha,0%
same,POLCO Ob,[10]; applied alone at 17.5 g/ha,0%
same,POLCO Ob,[10]; applied alone at 35 g/ha,0%
same,POLCO Ob,[10]; applied alone at 70 g/ha,0%
same,POLCO Ob,[10]; applied alone at 140 g/ha,0%
same,HORVS Ob,[3]; applied alone at 17.5 g/ha,0%
same,HORVS Ob,[3]; applied alone at 35 g/ha,0%
same,HORVS Ob,[3]; applied alone at 70 g/ha,0%
same,HORVS Ob,[3]; applied alone at 140 g/ha,0%
same,VERPE Ob,[11]; applied alone at 17.5 g/ha,0%
same,VERPE Ob,[11]; applied alone at 35 g/ha,0%
same,VERPE Ob,[11]; applied alone at 70 g/ha,0%
same,VERPE Ob,[11]; applied alone at 140 g/ha,0%
same,HORVW Ob (Observed values),barley (HORVW); safener 4.4 g/ha alone,0%
same,HORVW Ob (Observed values),barley (HORVW); safener 8.8 g/ha alone,0%
same,HORVW Ob (Observed values),barley (HORVW); safener 17.5 g/ha alone,0%
same,HORVW Ob (Observed values),barley (HORVW); safener 35 g/ha alone,0%
same,TRZDU Ob (Observed values),[12]; safener 4.4 g/ha alone,0%
same,TRZDU Ob (Observed values),[12]; safener 8.8 g/ha alone,0%
same,TRZDU Ob (Observed values),[12]; safener 17.5 g/ha alone,0%
same,TRZDU Ob (Observed values),[12]; safener 35 g/ha alone,0%
same,TRZAS Ob,[4]; applied alone at 17.5 g/ha,0%
same,TRZAS Ob,[4]; applied alone at 35 g/ha,0%
same,TRZAS Ob,[4]; applied alone at 70 g/ha,0%
same,TRZAS Ob,[4]; applied alone at 140 g/ha,0%
same,SASKR Ob,[13]; applied alone at 17.5 g/ha,0%
same,SASKR Ob,[13]; applied alone at 35 g/ha,0%
same,SASKR Ob,[13]; applied alone at 70 g/ha,0%
same,SASKR Ob,[13]; applied alone at 140 g/ha,0%
Clc1cc(Cl)nc(-c2ccccc2)n1 [Fenclorim],LAMPU Ob,[5]; 17.5 g/ha,0
same,LAMPU Ob,[5]; 35 g/ha,0
same,LAMPU Ob,[5]; 70 g/ha,0
same,LAMPU Ob,[5]; 140 g/ha,0
same,VIOTR Ob,"[1]; applied alone, 17.5 g/ha",0
same,VIOTR Ob,"[1]; applied alone, 35 g/ha",0
same,VIOTR Ob,"[1]; applied alone, 70 g/ha",0
same,VIOTR Ob,"[1]; applied alone, 140 g/ha",0
same,PAPRH Ob,"[7]; applied alone, 17.5 g/ha",0
same,PAPRH Ob,"[7]; applied alone, 35 g/ha",0
same,PAPRH Ob,"[7]; applied alone, 70 g/ha",0
same,PAPRH Ob,"[7]; applied alone, 140 g/ha",0
same,STEME Ob,"[8]; applied alone, 17.5 g/ha",0
same,STEME Ob,"[8]; applied alone, 35 g/ha",0
same,STEME Ob,"[8]; applied alone, 70 g/ha",0
same,STEME Ob,"[8]; applied alone, 140 g/ha",0
same,MATCH Ob,[2]; 17.5 g/ha,0
same,MATCH Ob,[2]; 35 g/ha,0
same,MATCH Ob,[2]; 70 g/ha,0
same,MATCH Ob,[2]; 140 g/ha,0
same,GALAP Ob,"[9]; applied alone, 17.5 g/ha",0
same,GALAP Ob,"[9]; applied alone, 35 g/ha",0
same,GALAP Ob,"[9]; applied alone, 70 g/ha",0
same,GALAP Ob,"[9]; applied alone, 140 g/ha",0
same,POLCO Ob,"[10]; applied alone, 17.5 g/ha",0
same,POLCO Ob,"[10]; applied alone, 35 g/ha",0
same,POLCO Ob,"[10]; applied alone, 70 g/ha",0
same,POLCO Ob,"[10]; applied alone, 140 g/ha",0
same,KCHSC Ob,[14]; 17.5 g/ha,0
same,KCHSC Ob,[14]; 35 g/ha,0
same,KCHSC Ob,[14]; 70 g/ha,0
same,KCHSC Ob,[14]; 140 g/ha,0
same,VERPE Ob,"[11]; applied alone, 17.5 g/ha",0
same,VERPE Ob,"[11]; applied alone, 35 g/ha",0
same,VERPE Ob,"[11]; applied alone, 70 g/ha",0
same,VERPE Ob,"[11]; applied alone, 140 g/ha",0
same,SASKR Ob,"[13]; applied alone, 17.5 g/ha",0
same,SASKR Ob,"[13]; applied alone, 35 g/ha",0
same,SASKR Ob,"[13]; applied alone, 70 g/ha",0
same,SASKR Ob,"[13]; applied alone, 140 g/ha",0
